From ChEMBL document CHEMBL3758072, “Amphiphilic nanoparticles of resveratrol-norcantharidin to enhance the toxicity in zebrafish embryo” (Bioorg Med Chem Lett, 2016) come the findings set out here.

Calls of active or inactive are those of the source. No cut-off for these calls is given here.

Data set [1] is described as follows: Drug accumulation in zebrafish embryo stomach at 10 ppm incubated for 80 mins. The conditions noted are these: in vivo. The class given is ADME, tissue-based, Danio rerio.
The nature of data set [2]: Drug accumulation in zebrafish embryo intestinal villi at 10 ppm incubated for 80 mins. The class given is ADME, Danio rerio. The conditions noted are these: in vivo.
Data set [3] is described as follows: Drug accumulation in zebrafish embryo skin at 10 ppm incubated for 80 mins. The conditions noted are these: in vivo. The class given is ADME, Danio rerio, Zone of skin.
The nature of data set [4]: Drug accumulation in zebrafish embryo muscle at 10 ppm incubated for 80 mins. The class given is ADME, Danio rerio, Muscle tissue. The conditions noted are these: in vivo.
The species entered for data set [5] is Danio rerio. Kind of data set: Cytotoxicity in zebrafish embryo assessed as survival rate at 10 ppm after 80 mins relative to control. The class given is functional.
The species named for data set [6] is Danio rerio. Kind of data set: Cytotoxicity in zebrafish embryo assessed as survival rate at 25 ppm after 80 mins relative to control. The class given is functional.
For data set [7], the species on record is Danio rerio. Kind of data set: Cytotoxicity in zebrafish embryo assessed as survival rate at 50 ppm after 80 mins relative to control. In kind it is functional.
The test system of the next data set is Escherichia coli. Kind of data set: Antibacterial activity against Escherichia coli assessed as inhibition of microbial growth. The class given is functional, organism-based.

Regarding `CCN(CC)c1ccc2c(-c3ccccc3C(=O)NCCNC(=O)[C@@H]3[C@H](C(=O)OC)[C@H]4CC[C@@H]3O4)c3ccc(=[N+](CC)CC)cc-3oc2c1`, the Drug uptake entry in data set [1] is reported as “Active”; in data set [2], “Active”; in data set [3], “Not Active”; in data set [4], “Not Active”.

As for `O=C1OC(=O)C2C3CCC(O3)C12` (stereo unspecified) [DEMETHYL-CANTHARIDIN], the Survival in the data set filed under Danio rerio [5] was 99.2%; in the data set listed under Danio rerio [6], 96.7%; in the data set filed under Danio rerio [7] it was 90.8%. Further, in the data set with Escherichia coli, the “growth inhibition (GI)” value is “inactive”.

`COC(=O)[C@H]1[C@@H](C(=O)Oc2ccc(/C=C/c3cc(O)cc(O)c3)cc2)[C@@H]2CC[C@H]1O2`: the Survival was 99.2% in the data set filed under Danio rerio [5], 99.2% in the data set filed under Danio rerio [6] and 95.8% in the data set listed under Danio rerio [7].
